Assay results published in US8492543B2, “Method for producing quinazoline derivative” (Eisai R&D Management Co., Ltd., priority 2007, dated 2013).
Read-outs that look alike come from different tables or passages of the source.

Tests used:
CYP1A2 [1] = settings: human, hepatocytes
Protocol: (§1) Cryopreserved human hepatocytes (XenoTeck) were rapidly thawed at 37° C., and viable cells were obtained using Hepatocytes Isolation Kit (Nosan Corporation). After cells prepared were diluted with ice cold William's Medium E (10% FBS, +PSG) to give a concentration of 5×10^5 viable cells/mL, the cells were seeded onto a 48-well collagen-coated plate (BD Biosciences) at a concentration of 1×10^5 cells/cm^2 and cultured at 37° C. in 5% CO2 for 24 hours. Then, the medium was replaced with Hepato-STIM (registered trade mark: BD Biosciences) (+EGF, PSG, −FBS), and the cells were further cultured at 37° C. in 5% CO2 for 24 hours. […] The culture medium containing test compound, β-NF or Rif was replaced every 24 hours. Test compound, β-NF and Rif were each dissolved in dimethyl sulfoxide (DMSO: Wako Pure Chemical Industries, Ltd.), and culture medium containing test compound (final concentrations; 1, 3 and 10 μM), β-NF (final concentration; 10 μM) or Rif (final concentration; 10 μM) was prepared by adding them to Hepato-STIM(+EGF, PSG, −FBS), respectively. Final concentration of DMSO was set to be 0.1%, and culture medium containing 0.1% DMSO was used for control. After completion of the treatment, the cells were washed with PBS once, and total RNA was purified using Total RNA Purification Kit (Applied Biosystems). The purified total RNA was subjected to reverse transcription reaction using TaqMan Reverse Transcription Reagents (Applied Biosystems) to synthesize cDNA, where oligo dT was used as a primer. The reaction was carried out using Gene Amp PCR system 9700 at 25° C. for 10 minutes, followed by at 48° C. for 60 minutes. Then, reverse transcriptase was deactivated at 95° C. for 10 minutes. The levels of mRNA for CYP1A1 and GAPDH were quantified using SYBR Green PCR Core Reagents Kit (Applied Biosystems), and those for CYP1A2 and that of CYP3A4 were measured using Taqman PCR Core Reagents Kit (Applied Biosystems) and ABI Prism 7900 Sequence Detection System (Applied Biosystems).
(§2) The ability of a test compound to induce CYP1A1 was calculated as follows: Ability of a test compound to induce CYP1A1(%)={[(amount of mRNA of CYP1A1 in test compound treated cells)/(amount of mRNA of GAPDH in test compound treated cells)]/[(amount of mRNA of CYP1A1 in control cells)/(amount of mRNA of GAPDH in control cells)]−1}/{[(amount of mRNA of CYP1A1 in positive control treated cells)/(amount of mRNA of GAPDH in positive control treated cells)]/[(amount of mRNA of CYP1A1 in control cells)/(amount of mRNA of GAPDH in control cells)]−1}×100
(§3) The ability to induce CYP1A2 or CYP3A4 was calculated in the same manner described above.

CYP1A1 = settings: human, hepatocytes
Protocol: Cryopreserved human hepatocytes (XenoTeck) were rapidly thawed at 37° C., and viable cells were obtained using Hepatocytes Isolation Kit (Nosan Corporation). After cells prepared were diluted with ice cold William's Medium E (10% FBS, +PSG) to give a concentration of 5×10^5 viable cells/mL, the cells were seeded onto a 48-well collagen-coated plate (BD Biosciences) at a concentration of 1×10^5 cells/cm^2 and cultured at 37° C. in 5% CO2 for 24 hours. Then, the medium was replaced with Hepato-STIM (registered trade mark: BD Biosciences) (+EGF, PSG, −FBS), and the cells were further cultured at 37° C. in 5% CO2 for 24 hours. […] The culture medium containing test compound, β-NF or Rif was replaced every 24 hours. Test compound, β-NF and Rif were each dissolved in dimethyl sulfoxide (DMSO: Wako Pure Chemical Industries, Ltd.), and culture medium containing test compound (final concentrations; 1, 3 and 10 μM), β-NF (final concentration; 10 μM) or Rif (final concentration; 10 μM) was prepared by adding them to Hepato-STIM(+EGF, PSG, −FBS), respectively. Final concentration of DMSO was set to be 0.1%, and culture medium containing 0.1% DMSO was used for control. […] The levels of mRNA for CYP1A1 and GAPDH were quantified using SYBR Green PCR Core Reagents Kit (Applied Biosystems), and those for CYP1A2 and that of CYP3A4 were measured using Taqman PCR Core Reagents Kit (Applied Biosystems) and ABI Prism 7900 Sequence Detection System (Applied Biosystems).
as §2

CYP3A4 = test: Induction potency of drug metabolizing enzyme (CYP) using cryopreserved human hepatocytes: CYP3A4 mRNA; settings: approx. 48 hours, mRNA relative to Rif 10 μM
Protocol: Cryopreserved human hepatocytes (XenoTeck) were rapidly thawed at 37° C., and viable cells were obtained using Hepatocytes Isolation Kit (Nosan Corporation). After cells prepared were diluted with ice cold William's Medium E (10% FBS, +PSG) to give a concentration of 5×10^5 viable cells/mL, the cells were seeded onto a 48-well collagen-coated plate (BD Biosciences) at a concentration of 1×10^5 cells/cm^2 and cultured at 37° C. in 5% CO2 for 24 hours. Then, the medium was replaced with Hepato-STIM (registered trade mark: BD Biosciences) (+EGF, PSG, −FBS), and the cells were further cultured at 37° C. in 5% CO2 for 24 hours. […] The culture medium containing test compound, β-NF or Rif was replaced every 24 hours. Test compound, β-NF and Rif were each dissolved in dimethyl sulfoxide (DMSO: Wako Pure Chemical Industries, Ltd.), and culture medium containing test compound (final concentrations; 1, 3 and 10 μM), β-NF (final concentration; 10 μM) or Rif (final concentration; 10 μM) was prepared by adding them to Hepato-STIM(+EGF, PSG, −FBS), respectively. […] The levels of mRNA for CYP1A1 and GAPDH were quantified using SYBR Green PCR Core Reagents Kit (Applied Biosystems), and those for CYP1A2 and that of CYP3A4 were measured using Taqman PCR Core Reagents Kit (Applied Biosystems) and ABI Prism 7900 Sequence Detection System (Applied Biosystems).
as §2, §3

CYPs = test: Induction potency on CYPs, overall statement (cryopreserved human hepatocytes); settings: CYP1A1, CYP1A2, CYP3A4; 1, 3 and 10 μM
Protocol: Cryopreserved human hepatocytes (XenoTeck) were rapidly thawed at 37° C., and viable cells were obtained using Hepatocytes Isolation Kit (Nosan Corporation). After cells prepared were diluted with ice cold William's Medium E (10% FBS, +PSG) to give a concentration of 5×10^5 viable cells/mL, the cells were seeded onto a 48-well collagen-coated plate (BD Biosciences) at a concentration of 1×10^5 cells/cm^2 and cultured at 37° C. in 5% CO2 for 24 hours. Then, the medium was replaced with Hepato-STIM (registered trade mark: BD Biosciences) (+EGF, PSG, −FBS), and the cells were further cultured at 37° C. in 5% CO2 for 24 hours. […] The culture medium containing test compound, β-NF or Rif was replaced every 24 hours. […] The levels of mRNA for CYP1A1 and GAPDH were quantified using SYBR Green PCR Core Reagents Kit (Applied Biosystems), and those for CYP1A2 and that of CYP3A4 were measured using Taqman PCR Core Reagents Kit (Applied Biosystems) and ABI Prism 7900 Sequence Detection System (Applied Biosystems). […]
as §3

CYP1A2 [2] = test: Induction potency of drug metabolizing enzyme (CYP) using cryopreserved human hepatocytes: CYP1A2 mRNA; settings: 10 μM, approx. 48 hours, mRNA relative to β-NF 10 μM
Protocol: as §1, §2, §3

COc1cc2nc(Cl)nc(-c3cccc(NC(=O)OC(C)(C)C)c3)c2cc1OC [Example 1, t-butyl [3-(2-chloro-6,7-dimethoxyquinazolin-4-yl)phenyl]carbamate]
Induction Ability compared to positive control (%) CYP1A2 (CYP1A2 [1]; 1 μM): −0.1% | Induction Ability compared to positive control (%) CYP1A2 (CYP1A2 [1]; 3 μM): −0.7% | Induction Ability compared to positive control (%) CYP1A2 (CYP1A2 [1]; 10 μM): 2.5% | Induction Ability compared to positive control (%) CYP1A1 (CYP1A1; 1 μM): 0.1% | Induction Ability compared to positive control (%) CYP1A1 (CYP1A1; 3 μM): 0.6% | Induction Ability compared to positive control (%) CYP1A1 (CYP1A1; 10 μM): 4.6% | Induction Ability compared to positive control (%) CYP3A4 (CYP3A4; 1 μM): −2.4% | Induction Ability compared to positive control (%) CYP3A4 (CYP3A4; 3 μM): −3.4% | Induction Ability compared to positive control (%) CYP3A4 (CYP3A4; 10 μM): −4.0%

CNc1nc(-c2cccc(NC(=O)c3ccc(C(=O)OC)cc3)c2)c2cc(OC)c(OC)cc2n1 [Example 10, methyl N-[3-(6,7-dimethoxy-2-methylaminoquinazolin-4-yl)phenyl]terephthalamic acid]
induction potency on CYPs compared with the comparative example (CYPs): lower induction potency on CYPs than the compound of the comparative example

O=c1cc(-c2ccccc2)oc2ccc3ccccc3c12 [β-naphthof lavone, β-naphthoflavone]
Induction Ability compared to positive control (%) CYP1A2 (CYP1A2 [2]): 100.0%
